# From US20190350964A1, “ANTI-CANCER COMPOUNDS AND USES THEREOF” (NATIONAL UNIVERSITY OF SINGAPORE, priority 2016, published 2019)
# How the values were obtained:
# [1] = test system: MDA-MB-231 human breast tumor cells; assay: MDA-MB-231 tumor xenograft in nude mice; type: in vivo, mouse; conditions: a131 20 mg/kg, b5 40-80 mg/kg, PO or IP twice daily, 15 days
# Excerpt: BALB/c athymic female nude mice (nu/nu, 5-7 weeks) (InVivos) were kept under specific pathogen-free (SPF) conditions. The care and use of mice was approved by the Duke-NUS IACUC in accordance with protocol 2015/SHS/1030. HCT15 human colon cancer cells (5×10^6) or MDA-MB-231 human breast cancer cells (4×10^6 with Matrigel) were subcutaneously injected into the flanks of mice. When the mean tumor volume reached 100-300 mm^3 (Day 1), the mice were randomly divided into experimental groups of 6 mice by an algorithm that moves animals around to achieve the best case distribution to assure that each treatment group has similar mean tumor burden and standard deviation. No statistical method was used to predetermine sample size. […] Tumor dimensions were measured using calipers, and tumor volume (mm^3) was calculated using the formula width^2×length/2 in a blinded fashion. […] Images were acquired in 3D-SIM mode using a super resolution microscope (Nikon), and the number of cells with either 2 or mitotic-spindles was quantified (n>50 cells per section, 6-7 sections per treatment). […] For the DAB image, a fixed threshold was used, watershed applied and the number of DAB stained nuclei counted. In all cases, no data or animals were excluded and results are expressed as mean and standard deviation of the mean.
# transformed BJ cells = assay: Time-lapse live-cell imaging and immunofluorescence of mitosis; type: cell-based, human; conditions: 2.5 μM
# Protocol: For immunofluorescence analysis, cells grown on coverglass-bottom chamber slides (Lab-Tek) were fixed with 4% PFA (paraformaldehyde) for 15 min at 25° C. The fixed cells were permeabilized with 0.5% Triton X-100 and exposed to TBS containing 0.1% Triton X-100 and 2% BSA (AbDil). The following primary antibodies were diluted in PBS containing 1% BSA and 0.1% Triton X-100: anti-γ-tubulin (Sigma-Aldrich, #T6557; 1:1000) and anti-β-tubulin (Abcam, #ab18207; 1:2000). Isotype-specific secondary antibodies (1:500 dilution) coupled to Alexa Fluor 488, 594, or Cy5 (Molecular Probes) were used. Cells were counterstained with DAPI (Thermo Scientific). Images were acquired at RT with 3D-SIM mode using a Super Resolution Microscope (Nikon) equipped with an iXon EM+885 EMCCD camera (Andor) mounted on a Nikon Eclipse Ti-E inverted microscope with a CFI Apo TIRF (100×/1.40 oil) objective and processed with the NIS-Elements AR software. For time-lapse live-cell analysis, a Stage Top Incubator with Digital CO2 mixer (Tokai) was used, and images were acquired at 37° C.
# MKN45 = assay: MTT cytotoxicity test (GI50); type: cell-based; conditions: Homo sapiens, MKN-45; MKN45, cancer, gastric; MTT 72 h
# Adenosine kinase = target: T1, Adenosine kinase (Homo sapiens, UniProt P55263); assay: MS-CETSA in normal BJ cell lysates; type: binding; conditions: lysate, 100 μM compound
# T1 construct: After collecting data covering >8,000 proteins in lysates of normal BJ cells; endogenous in cells; host or cells: normal BJ cells, lysate
# T1 sequence (P55263 whole entry): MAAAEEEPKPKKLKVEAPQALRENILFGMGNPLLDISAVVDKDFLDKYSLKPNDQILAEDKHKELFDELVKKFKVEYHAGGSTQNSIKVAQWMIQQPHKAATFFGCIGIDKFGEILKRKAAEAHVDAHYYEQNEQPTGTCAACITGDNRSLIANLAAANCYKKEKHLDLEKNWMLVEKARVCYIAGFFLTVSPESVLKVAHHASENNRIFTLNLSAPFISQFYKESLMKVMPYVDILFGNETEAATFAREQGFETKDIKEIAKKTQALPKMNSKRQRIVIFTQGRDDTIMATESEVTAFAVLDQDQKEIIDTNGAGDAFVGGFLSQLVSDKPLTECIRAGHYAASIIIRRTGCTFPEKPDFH
# Protocol: Target identification was performed by cellular thermal shift assay (CETSA) coupled with quantitative mass spectrometry. In brief, normal BJ cells were lysed by combination of freeze/thaw and mechanical shearing with needle in buffer [50 mM HEPES (pH 7.5), 5 mM β-glycerophosphate, 0.1 mM Sodium Vanadate, 10 mM MgCl2, 1 mM TCEP and 1× Protease inhibitor Cocktail]. The cell debris was removed by centrifugation at 20,000 g for 20 min at 4° C. […] Each lysate was divided into 10 aliquots for heat treatment at the respective temperatures for 3 min in a 96-well thermocycler, followed by 3 min at 4° C. The lysate was centrifuged at 20,000 g for 20 min at 4° C. and the supernatant was transferred into microtubes for MS sample preparation.
# After lysis, at least 100 μg of the protein (measured with a BCA assay) was subjected to reduction, denaturation and alkylation. Samples were subsequently incubated with sequencing grade LysC (Wako) and trypsin (Promega) for digestion overnight at 37° C. The digested samples were dried using a centrifugal vacuum evaporator, solubilized in 100 mM TEAB. […]
# Proteins for which a low temperature plateau was not present were deleted using a cut off >0.85 for the average reading of the first three temperature points (in our experience proteins melting already at −37° C. are more prone to give false positives in a shift analysis).
compound,measurement,setting,value
"N#C/C(=C\c1cccc2cnccc12)c1c[nH]c2ccccc12 [a131, (Z)-2-(1H-indol-3-yl)-3-(5-isoquinolyl)prop-2-enenitrile]",antitumor activity (tumor volume),[1],marked antitumor efficacies
same,mitotic arrest (time-lapse analysis),transformed BJ cells,immediately induced mitotic arrest in transformed BJ cells
same,centrosome de-clustering and multipolar mitotic spindles,transformed BJ cells; 32 h,caused de-clustered centrosomes and multipolar mitotic-spindles in transformed BJ
same,GI50,MKN45,1000 nM
same,ED score,Adenosine kinase,0.4158
same,ΔTm at 100 µM,Adenosine kinase; read-out: mean Delta Tm,1.74 °C
